In ChEMBL document CHEMBL1201862, “PubChem BioAssay data set” (2004):
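Tested at 5 concentrations; 48 h exposure; 96-well plates; endpoints linearly interpolated, else capped at highest concentration. GI50 is the concentration that inhibits growth by half.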 Activity calls are given as the source filed them. Rule as the data show it: active = GI50 up to about 1.1 µM and inactive = higher.

Key:
Test in all cases: growth of human tumour cells (NCI), 48 h
SK-MEL-5 = tested on: SK-MEL-5
RPMI-8226 = tested on: RPMI-8226
SK-MEL-2 = tested on: SK-MEL-2
UO-31 = tested on: UO-31
SF-295 = tested on: SF-295
M19-MEL = tested on: M19-MEL
COLO 205 = tested on: COLO 205
SK-MEL-28 = tested on: SK-MEL-28
NCI-H23 = tested on: NCI-H23
SF-539 = tested on: SF-539
TK-10 = tested on: TK-10
SNB-78 = tested on: SNB-78
K562 = tested on: K562
EKVX = tested on: EKVX
IGROV-1 = tested on: IGROV-1
A549 = tested on: A549
HCT-15 = tested on: HCT-15
NCI-H522 = tested on: NCI-H522
NCI-H460 = tested on: NCI-H460

| SMILES | GI50 (SK-MEL-5) | GI50 (RPMI-8226) | GI50 (SK-MEL-2) | GI50 (UO-31) | GI50 (SF-295) | GI50 (M19-MEL) | GI50 (COLO 205) | GI50 (SK-MEL-28) | GI50 (NCI-H23) | GI50 (SF-539) | GI50 (TK-10) | GI50 (SNB-78) | GI50 (K562) | GI50 (EKVX) | GI50 (IGROV-1) | GI50 (A549) | GI50 (HCT-15) [µM] | GI50 (NCI-H522) | GI50 (NCI-H460) |
| --- | --- | --- | --- | --- | --- | --- | --- | --- | --- | --- | --- | --- | --- | --- | --- | --- | --- | --- | --- |
| CCOC(=O)c1ccc(N2C(=O)Cc3ccccc3C2=O)cc1 | > 100 µM (inactive) | > 100 µM (inactive) | > 100 µM (inactive) | > 100 µM (inactive) | > 100 µM (inactive) | > 100 µM (inactive) | > 10 µM (inactive) | > 100 µM (inactive) | > 100 µM (inactive) | > 100 µM (inactive) | > 100 µM (inactive) | > 100 µM (inactive) | > 100 µM (inactive) | > 100 µM (inactive) | > 100 µM (inactive) | > 100 µM (inactive) | > 100 | – | – |
| O=S(=O)(/C=C/c1ccc(F)cc1)Cc1ccc(CS(=O)(=O)/C=C/c2ccc(F)cc2)cc1 | > 100 µM (inactive) | > 100 µM (inactive) | > 100 µM (inactive) | > 100 µM (inactive) | > 100 µM (inactive) | > 100 µM (inactive) | > 100 µM (inactive) | > 100 µM (inactive) | > 100 µM (inactive) | > 100 µM (inactive) | > 100 µM (inactive) | > 100 µM (inactive) | > 100 µM (inactive) | > 100 µM (inactive) | > 100 µM (inactive) | > 100 µM (inactive) | > 100 | > 100 µM (inactive) | > 100 µM (inactive) |
| CN(C)c1ccc(/C=C/C=C\c2cc(/C=C/C=C/c3ccc(N(C)C)cc3)[s+]c3ccccc23)cc1.[O-][Cl+3]([O-])([O-])[O-] | 43.8 µM (inactive) | 55.3 µM (inactive) | 45.2 µM (inactive) | > 100 µM (inactive) | > 100 µM (inactive) | 15.5 µM (inactive) | 29.3 µM (inactive) | 14.2 µM (inactive) | 10 µM (inactive) | > 100 µM (inactive) | > 100 µM (inactive) | 51.4 µM (inactive) | > 100 µM (inactive) | > 100 µM (inactive) | – | > 100 µM (inactive) | 80.7 | 10 µM (inactive) | > 100 µM (inactive) |
| CC(=O)OC1COC(N2C(=O)C(=O)c3cc(Br)ccc32)C(OC(C)=O)C1OC(C)=O (stereo not drawn) | > 100 µM (inactive) | > 100 µM (inactive) | > 100 µM (inactive) | > 100 µM (inactive) | > 100 µM (inactive) | 52.1 µM (inactive) | > 100 µM (inactive) | > 100 µM (inactive) | > 100 µM (inactive) | > 100 µM (inactive) | > 100 µM (inactive) | > 100 µM (inactive) | > 100 µM (inactive) | > 100 µM (inactive) | > 100 µM (inactive) | > 100 µM (inactive) | > 100 | > 100 µM (inactive) | > 100 µM (inactive) |
| COc1cc2c3c(c1OC)C1(C=CC(=O)C=C1)CC3N(C(=O)OC(C)(C)C(Cl)(Cl)Cl)CC2 (stereo not drawn) | 6.87 µM (inactive) | 2.23 µM (inactive) | 11 µM (inactive) | 14.5 µM (inactive) | 13.4 µM (inactive) | 10.8 µM (inactive) | 12.4 µM (inactive) | – | 16.4 µM (inactive) | 15.7 µM (inactive) | 43.2 µM (inactive) | 14.4 µM (inactive) | 4.68 µM (inactive) | 16.8 µM (inactive) | 16.6 µM (inactive) | 10.5 µM (inactive) | 7.52 | 8.93 µM (inactive) | 14.5 µM (inactive) |
| Cc1cc(C)[n+](CCOc2ccc(/C(=C(/Cl)c3ccccc3)c3ccccc3)cc2)c(C)c1.[O-][Cl+3]([O-])([O-])[O-] | 0.455 µM (active) | 0.348 µM (active) | 0.865 µM (active) | 14.8 µM (inactive) | 2.47 µM (inactive) | 0.495 µM (active) | 0.292 µM (active) | 1.32 µM (inactive) | 0.869 µM (active) | 1.8 µM (inactive) | 3.52 µM (inactive) | 2 µM (inactive) | 0.257 µM (active) | 0.887 µM (active) | 0.612 µM (active) | 1.55 µM (inactive) | 13.4 | 0.39 µM (active) | 1.25 µM (inactive) |
| O=C(Nc1ccn(CCO)c(=O)n1)c1ccccc1 | > 100 µM (inactive) | > 100 µM (inactive) | > 100 µM (inactive) | > 100 µM (inactive) | > 100 µM (inactive) | > 100 µM (inactive) | > 100 µM (inactive) | > 100 µM (inactive) | – | > 100 µM (inactive) | > 100 µM (inactive) | > 100 µM (inactive) | > 100 µM (inactive) | > 100 µM (inactive) | > 100 µM (inactive) | > 100 µM (inactive) | > 100 | > 100 µM (inactive) | > 100 µM (inactive) |
